Where two headings read alike, the source gives them in different places.
Test system: SMN2-linked luciferase-reporter gene construct
Experiment: SMN splice reporter assay (SMN2-linked luciferase reporter, Example 10)
Type: cell-based
Conditions: for maximal fold induction: read-out: SMN Splice Reporter Assay (Example 10) Avg MaxFold Increase
Outline: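 Values are fold-increase in luciferase signal relative to baseline cells without compound. The cervical carcinoma line used holds a fusion of alternatively spliced SMN2 sequence and luciferase. Readable frame, and thus signal, arises only with exon 7-including splicing.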

[1] = SMN2-linked luciferase reporter, average
[2] = maximum fold increase of reporter signal, average

Compound	EC50 [1] [nM]	maximal fold induction [2]	maximal fold induction (SMN2-linked luciferase reporter, average maximum fold increase)
CC(C(=O)O)c1ccc(N2Cc3ccc(OC4CCCC4)cc3C2=O)cc1 (stereo not shown) [ALB-113493]	81	1.89	–
Cc1cc(C(C)C(=O)O)ccc1N1Cc2ccccc2C1=O (stereo not shown) [ALB-112487]	–	1.17	–
CC(C(=O)OC(C)(C)C)c1ccc(N2Cc3cc(C#N)ccc3C2=O)cc1 (stereo not shown) [ALB-112444]	307	1.04	–
CCN(CC)c1ccc2c(c1)C(=O)N(c1ccc(C(C)C)cc1)C2 [ALB-116639]	121	1.19	–
CNc1ccc2c(c1)C(=O)N(c1ccc(C(C)C(=O)OC(C)(C)C)cc1)C2 (stereo not shown) [ALB-112170]	1040	1.27	–
CC(C(=O)NS(=O)(=O)c1ccccc1)c1ccc(N2Cc3ccccc3C2=O)cc1 (stereo not shown) [ALB-111747]	–	1.04	–
COc1ccc(C(=O)Nc2ccc3c(c2)C(=O)N(c2ccc(C(C)C(=O)O)cc2)C3)cc1 (stereo not shown) [ALB-111984]	9460	1.19	–
CC(C(=O)OC(C)(C)C)c1ccc(N2Cc3ccccc3C2=O)c(-c2cccnc2)c1 (stereo not shown) [ALB-112172]	–	1.04	–
CC(C(=O)O)c1ccc(N2Cc3c(cccc3-c3ccc(Cl)cc3)C2=O)cc1 (stereo not shown) [ALB-112223]	11000	1.31	–
CC(C(=O)O)c1ccc(N2Cc3c(cccc3-c3ccccc3)C2=O)cc1 (stereo not shown) [ALB-112220]	–	1.22	–
CC(C(=O)OC(C)(C)C)c1ccc(N2Cc3ccccc3C2=O)cc1 (stereo not shown) [ALB-111738]	2300	1.17	–
CC(C)=Cc1ccc2c(c1)C(=O)N(c1ccc(C(C)C(=O)O)cc1)C2 (stereo not shown) [ALB-115425]	18	1.95	–
CC(C(=O)OC(C)(C)C)c1ccc(N2Cc3cccc(Br)c3C2=O)cc1 (stereo not shown) [ALB-112065]	1340	1.22	–
CC(C(=O)OC(C)(C)C)c1ccc(N2Cc3ccc(N(C)C(=O)c4ccccc4)cc3C2=O)cc1 (stereo not shown) [ALB-112169]	–	1.07	–
CC(C)c1ccc(N2Cc3ccc(NC(=O)Nc4ccccc4)cc3C2=O)cc1 [ALB-118416]	–	–	1.17
CCCc1cc(N2Cc3ccccc3C2=O)ccc1C(C)C(=O)O (stereo not shown) [ALB-112083]	–	1.09	–
COc1ccc2c(c1)C(=O)N(c1ccc(C3CCCC3)cc1)C2 [ALB-115422]	399	1.27	–

Compound	EC50 [1] [nM]	maximal fold induction [2]	maximal fold induction (SMN2-linked luciferase reporter, average maximum fold increase)
CC(C(=O)O)c1ccc(N2Cc3cccc(N)c3C2=O)cc1 (stereo not shown) [ALB-112062a]	329	1.41	–
COCCOc1ccc2c(c1)C(=O)N(c1ccc(C(C)C(=O)O)cc1)C2 (stereo not shown) [ALB-115071]	824	1.39	–
O=C1c2ccccc2CN1c1ccc(C2CCCCC2)cc1 [ALB-115423]	29	1.21	–
COCc1ccc(N2Cc3ccc(OC)cc3C2=O)cc1 [ALB-116067]	–	1.24	–
CC(C(=O)OC(C)(C)C)c1ccc(N2Cc3cccc(-c4ccc(Cl)cc4)c3C2=O)cc1 (stereo not shown) [ALB-112153]	–	1.02	–
COc1ccc(-c2cc(C(C)C(=O)O)ccc2N2Cc3ccccc3C2=O)cc1 (stereo not shown) [ALB-112086]	–	1.08	–
CCOc1cccc2c1C(=O)N(c1ccc(C(C)C(=O)O)cc1)C2 (stereo not shown) [ALB-113391]	15300	1.46	–
CC(C(=O)O)c1ccc(N2Cc3ccc(-c4ccc(Cl)cc4)cc3C2=O)cc1 (stereo not shown) [ALB-112449]	–	1.16	–
CC(C(=O)OC(C)(C)C)c1ccc(N2Cc3c(N)cccc3C2=O)cc1 (stereo not shown) [ALB-111952]	–	1.04	–
CC(C)COc1ccc2c(c1)C(=O)N(c1ccc(C(C)C(=O)O)cc1)C2 (stereo not shown) [ALB-115325]	74	1.57	–
CC(C(=O)O)c1ccc(N2Cc3cc(OC4CCCC4)ccc3C2=O)cc1 (stereo not shown) [ALB-113963]	–	1.14	–
CC(C)(C)c1ccc(N2Cc3ccccc3C2=O)cc1 [ALB-114936]	131	1.41	–
Cc1ccc(-c2cccc3c2C(=O)N(c2ccc(C(C)C(=O)O)cc2)C3)cc1 (stereo not shown) [ALB-112174]	–	1.18	–
CCCc1ccc2c(c1)C(=O)N(c1ccc(C(C)C)cc1)C2 [ALB-114939]	298	1.43	–
CC(C)c1ccc(N2Cc3ccc(-c4ccccc4)cc3C2=O)cc1 [ALB-118037]	937	1.34	–
Cc1cc(N2Cc3ccccc3C2=O)ccc1C(C)C(=O)OC(C)(C)C (stereo not shown) [ALB-112438]	2710	1.42	–

Source: patent US8110681B2, “Compounds for the treatment of spinal muscular atrophy and other uses” (The United States of America as represented by the …, priority 2006, dated 2012)
